Measurements reported in US9271978B2 (Zenith Epigenetics Corp., priority 2012, dated 2016).

How the values were obtained:
Set-up in all cases: key: Active: Compounds with an IC50 value less than 30 μM were deemed to be active.; Not Active: Compounds with an IC50 value less than 30 μM were deemed to be active
[1] = biological target: T1, second bromodomain of Brd2 (BRD2(2)) (Homo sapiens, UniProt P25440); assay: Inhibition of tetra-acetylated histone H4 binding to Brd2 bromodomain 2 (TR-FRET); conditions: tetra-acetylated histone H4 peptide, active = IC50 <30 μM
T1 construct: made in house; host or cells: E. coli BL21 (DE3)
Method in brief: (§1)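 IC50 values come from dose-response curves of the 665 nm to 620 nm TR-FRET signal decrease, measured after 2 h at room temperature. Reactions contained 200 nM E. coli-expressed His-tagged bromodomain, 25-50 nM biotinylated tetra-acetylated H4 peptide, Eu-streptavidin plus XL665 anti-His antibody, with 30 mM HEPES pH 7.4, 320 mM KF and 0.2% DMSO.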

[2] = biological target: T2, Brd4 bromodomain 1 (BRD4(1)) (Homo sapiens, UniProt O60885); assay: Inhibition of tetra-acetylated histone H4 binding to Brd4 bromodomain 1 (TR-FRET); conditions: tetra-acetylated histone H4 peptide, active = IC50 <30 μM
T2 construct: Illustrative results with the first bromodomain of Brd4; made in house; host or cells: E. coli BL21 (DE3)
Method in brief: as §1

[3] = tested on: human AML MV-4-11 (CRL-9591) cells; assay: Inhibition of cell proliferation in MV4-11 cells; type: cell-based; conditions: human AML MV-4-11 cells, 72 h; active = IC50 <30 μM
Protocol: MV4-11 cells: 96-well plates were seeded with 5×10^4 cells per well of exponentially growing human AML MV-4-11 (CRL-9591) cells and immediately treated with two-fold dilutions of test compounds, ranging from 30 μM to 0.2 μM. Triplicate wells were used for each concentration, as well as a media only and three DMSO control wells. The cells and compounds were incubated at 37° C., 5% CO2 for 72 h before adding 20 μL of the CellTiter Aqueous One Solution (Promega) to each well and incubating at 37° C., 5% CO2 for an additional 3-4 h. The absorbance was taken at 490 nm in a spectrophotometer and the percentage of proliferation relative to DMSO-treated cells was calculated after correction from the blank well. IC50 were calculated using the GraphPad Prism software.

c-myc = assay: Inhibition of c-myc expression in MV4-11 cells (mRNA, real-time PCR); type: cell-based; conditions: Human AML MV4-11 cells, 3 h incubation
Protocol: MV4-11 cells (2.5×10^4 cells) were plated in 96 well U-bottom plates with test compound or DMSO (0.1%), and incubated for 3 h at 37° C. Cells were then harvested by centrifugation, lysed, and mRNA was isolated using the mRNA catcher plus kit (Invitrogen). Reverse transcription of the mRNA and duplex amplification of the c-myc and cyclophilin cDNAs was performed using the RNA Ultrasense kit (Invitrogen) and a ViiA7 real-time PCR machine (Applied Biosystems). IC50 values were determined from a dose response curve.

hIL-6 mRNA = assay: Inhibition of hIL-6 mRNA transcription in U937 cells; type: cell-based, human; conditions: LPS stimulation, active = IC50 <30 μM
Method in brief: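 Readout is one-step real-time PCR of hIL-6 mRNA, normalized to an internal control and given as fold induction versus control. Cells: PMA (60 ng/mL, 3 days)-differentiated U937 macrophages, compound added 1 h before 1 ug/mL LPS, harvested after 3 h at 37° C.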

T1 sequence (P25440 344-453 limits assumed): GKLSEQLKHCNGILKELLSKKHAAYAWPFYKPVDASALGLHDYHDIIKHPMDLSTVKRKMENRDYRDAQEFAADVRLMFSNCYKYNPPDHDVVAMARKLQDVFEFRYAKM

Row | Compound | FRET activity (IC50 <30 μM) BRD2(2) [1] | FRET activity (IC50 <30 μM) BRD4(1) [2] | Cell Proliferation activity (IC50 <30 μM) [3] | c-myc activity (IC50 <30 μM) (c-myc) | IL-6 activity (IC50 <30 μM) (hIL-6 mRNA)
1 | Cc1noc(C)c1-c1ccc(=O)n(CCc2ccccc2)n1 [Example 1, 6-(3,5-Dimethylisoxazol-4-yl)-2-phenethylpyridazin-3(2H)-one] | Active | Active | Not Active | Not Active | Not Active
2 | Cc1noc(C)c1-c1ccc(=O)n(Cc2cccc(C(F)(F)F)c2)c1 [Example 4, 5-(3,5-Dimethylisoxazol-4-yl)-1-(3-(trifluoromethyl)benzyl)pyridin-2(1H)-one] | Active | Active | Active | Active | Active
3 | COc1cc(-c2ccc(=O)n(Cc3cccc(C#N)c3)n2)cc(OC)c1OC [Example 15, 3-((6-Oxo-3-(3,4,5-trimethoxyphenyl)pyridazin-1(6H)-yl)methyl)benzonitrile] | Active | Active | Not Active | Not Active | Active
4 | Cc1noc(C)c1-c1cc(C)c(=O)n(Cc2ccccc2)n1 [Example 21, 2-Benzyl-6-(3,5-dimethylisoxazol-4-yl)-4-methylpyridazin-3(2H)-one] | Active | Active | Not Active | Active | Active
5 | Cc1cc(Cn2cc(-c3c(C)noc3C)cc(N)c2=O)on1 [Example 240, 3-amino-5-(3,5-dimethylisoxazol-4-yl)-1-((3-methylisoxazol-5-yl)methyl)pyridin-2(1H)-one] | – | Active | Active | Active | Active
6 | Cc1noc(C)c1-c1cc(N)c(=O)n(Cc2ccc(C(C)C)cc2)c1 [Example 242, 3-Amino-5-(3,5-dimethylisoxazol-4-yl)-1-(4-isopropylbenzyl)pyridin-2(1H)-one] | – | Active | Active | Active | Active
7 | Cc1cc(Cn2cc(-c3c(C)noc3C)cc(N)c2=O)c(C)s1 [Example 251, 3-amino-5-(3,5-dimethylisoxazol-4-yl)-1-((2,5-dimethylthiophen-3-yl)methyl)pyridin-2(1H)-one] | – | Active | Active | Active | Active
8 | Cc1noc(C)c1-c1cc(N)c(=O)n(Cc2cncc(Cl)c2)c1 [Example 252, 3-amino-1-((5-chloropyridin-3-yl)methyl)-5-(3,5-dimethylisoxazol-4-yl)pyridin-2(1H)-one] | – | Active | Active | Active | Active
9 | Cc1noc(C)c1-c1cc(N)c(=O)n(Cc2ncccc2Cl)c1 [Example 254, 3-amino-1-((3-chloropyridin-2-yl)methyl)-5-(3,5-dimethylisoxazol-4-yl)pyridin-2(1H)-one] | – | Active | Active | Active | Active
10 | Cc1noc(C)c1-c1cc(N)c(=O)n(Cc2ccc3c(c2)OCO3)c1 [Example 256, 3-amino-1-(benzo[d][1,3]dioxol-5-ylmethyl)-5-(3,5-dimethylisoxazol-4-yl)pyridin-2(1H)-one] | – | Active | Active | Active | Active
11 | Cc1noc(C)c1-c1cc(N)c(=O)n(C(C)c2ccccc2)c1 (stereo not drawn) [Example 263, 3-amino-5-(3,5-dimethylisoxazol-4-yl)-1-(1-phenylethyl)pyridin-2(1H)-one] | – | Active | Active | Active | Active
12 | Cc1noc(C)c1-c1cc(N)c(=O)n(Cc2ccc(C#N)s2)c1 [Example 264, 5-((3-amino-5-(3,5-dimethylisoxazol-4-yl)-2-oxopyridin-1(2H)-yl)methyl)thiophene-2-carbonitrile] | – | Active | Active | Active | Active
13 | Cc1noc(C)c1-c1cc(N)c(=O)n(Cc2ccc(I)cc2)c1 [Example 267, 3-amino-5-(3,5-dimethylisoxazol-4-yl)-1-(4-iodobenzyl)pyridin-2(1H)-one] | – | Active | Active | Active | Active
14 | Cc1noc(C)c1-c1cc(N)c(=O)n(Cc2c[nH]c3ccccc23)c1 [Example 270, 1-((1H-indol-3-yl)methyl)-3-amino-5-(3,5-dimethylisoxazol-4-yl)pyridin-2(1H)-one] | – | Active | Active | Active | Active
15 | Cc1noc(C)c1-c1cc(N)c(=O)n(Cc2ccc(Br)c(C#N)c2)c1 [Example 272, 5-((3-amino-5-(3,5-dimethylisoxazol-4-yl)-2-oxopyridin-1(2H)-yl)methyl)-2-bromobenzonitrile] | – | Active | Active | Active | Active
16 | Cc1noc(C)c1-c1cc(N)c(=O)n(Cc2ccc(C#N)c(Br)c2)c1 [Example 273, 4-((3-amino-5-(3,5-dimethylisoxazol-4-yl)-2-oxopyridin-1(2H)-yl)methyl)-2-bromobenzonitrile] | – | Active | Active | Active | Active
17 | Cc1noc(C)c1-c1cc(N)c(=O)n(Cc2cccc3ncccc23)c1 [Example 274, 3-amino-5-(3,5-dimethylisoxazol-4-yl)-1-(quinolin-5-ylmethyl)pyridin-2(1H)-one] | – | Active | Active | Active | Active
